Laboratory results from patent US20240299566A1, “POLY-ARGININE DERIVATIVES FOR ENHANCING BRAIN-DERIVED GROWTH FACTOR TO MITIGATE NEUROLOGICAL DISORDERS” (priority 2021, published 2024).
“Also recorded” adds a separate entry of the source.

How the values were obtained:
ischemic episode = assay: Proposed treatment of patient with ischemia; assay type: in vivo, human; conditions: 50 mg/Kg i.v. within 2 hours of onset; outcome within 48 hours
Description: A person presents with an ischemic episode resulting sudden numbness the face, and left arm, confusion, and trouble speaking. […] Doses of from about 1 to about 100 mg/Kg will be used.

[1] = system: repeated corticosterone-injected mice; assay: Tail Suspension Test in repeated corticosterone-injected mice; assay type: in vivo; conditions: single i.v. injection 1 mg/kg, day 7 after injection
Description: FIG. 3B is a scatter plot showing immobility time of control mice or depressed mice during a Tail Suspension Test, 7 days after injection of vehicle or Compounds of Formula (IV), *P<0.001 vs. control mice.
(§1) Preclinical identification of fast-onset antidepressants requires animal models that can accurately predict the delay to therapeutic onset. […] This has led to the approval of SPRAVATO® (esketamine), a ketamine-derived drug which is the first antidepressant with a novel mechanism of action approved in decades. The neurobiological changes believed to underlie depressive symptomatology have been reliably characterized using exogenous corticosterone (CORT) administration e.g. dendritic atrophy in hippocampal pyramidal cells with loss of CA3 and CA1 apical dendrites. […] Mice then received a single injection of compounds of Formula (IV) (1 mg/kg) or Vehicle (0.9% NaCl). Day 7 after injection of compounds of Formula (IV), immobility times in the FST and TST were tested as described. #P<0.001 vs. control mice.

microglia = assay: Microglia morphology in CORT mouse model of depression; assay type: in vivo, mice; conditions: acute injection, FIG. 4C
Description: Microglial cells are capable of influencing complex moods, synaptic plasticity, neurogenesis, and memory. […] Classically activated, pro-inflammatory microglia phenotypes (termed M1-like), often release inflammatory mediators that result in severely injured tissue. Alternatively activated, anti-inflammatory microglial phenotypes (termed M2-like) are neuroprotective in function and promote the survival of new neurons. In a healthy brain, most microglial cells are in a resting state. The morphology of resting microglia is poly-branched with many fine branches and a smaller cytoplasm, compared to active microglia that display an increased soma size and more irregular shape of their cell body. Activation of microglia results in the release of pro-inflammatory factors, namely IL-1β, TNFα and IL-6.

IL-1β = assay: Inflammatory cytokine expression in CORT behavioral model of depression; assay type: in vivo, mice; conditions: acute injection, FIG. 4A
Description: A major breakthrough in our understanding of the mechanistic basis for depression is the “inflammatory hypothesis”.

[2] = system: repeated corticosterone-injected mice; assay: Forced Swim Test in repeated corticosterone-injected mice; assay type: in vivo; conditions: single i.v. injection 1 mg/kg, day 7 after injection
Description: FIG. 3A is a scatter plot showing immobility time of control mice or depressed mice during a Forced Swim Test, 7 days after injection of vehicle or Compounds of Formula (IV), where *P<0.001 vs. control mice.
as §1

[3] = system: Angelman syndrome (AS) mice; assay: Hippocampal LTP (field EPSP slopes, CA1) in Angelman syndrome mice after IP injection; assay type: in vivo; conditions: for LTP (field EPSP slopes, CA1 region of hippocampus): IP, AS mice
Description: Field EPSP slopes were recorded in the CA1 region of the hippocampus.
Electrophysiological recordings and data analysis were performed as described in Cao et al., 2013 (Impairment of TrkB-PSD-95 Signaling in Angelman Syndrome. PLoS Biol 11, e1001478 (2013). Coronal brain slices (350 μm) were maintained in an interface chamber containing oxygenated artificial cerebral spinal fluid (ACSF) for at least 1 h before use. Slices were transferred to a submersion recording chamber perfused with oxygenated ACSF at 2 ml/min. Extracellular postsynaptic field potentials (fEPSPs) were performed by placing electrodes (borosilicate glass, resistance <1 MΩ) in the CA1 stratum radiatum and synaptic responses elicited by stimulation of the Schaffer Collaterals using concentric bipolar stimulation electrodes and recorded using an AxoClamp2B amplifier (Axon instruments) and EX1 differential amplifier (Dagan), and digitized at 10 kHz. Data were acquired using Igor Pro (Wave Metrics) and Neuromatic (neuromatic.thinkrandom.com). LTP was induced by high frequency stimulation (2×HFS for is at 100 Hz separated by 20 s) of Schaffer collateral afferents and LTP values are expressed as percentage of baseline±SEM. Paired two-tailed t-tests were used for statistical analysis.

[4] = system: SH-SY5Y cells transfected with HA-TrkB; assay: BDNF-stimulated TrkB signaling, western blot with phospho-specific antibodies; assay type: cell-based; conditions: 1 μM, FIG. 1D
Description: FIG. 1A depicts western blots probed with phospho-specific antibodies against p-MTOR, p-Erk and p-S6 from SHSY5Y cells transfected with TrkB and stimulated with 30 ng/ml BDNF. Blots depict expression before (0′), or 15 or 60 minutes (15′ and 60′) after BDNF stimulation.
SH-SY5Y cells were transfected with HA-TrkB. Following transfection, cells were starved in MEM for 3 hours. In the last 90 minutes of starvation, cells were treated with compounds of Formula (IV) or CN-2097 (shown below) at 1 μM and 5 μM. In the last hour of starvation, cells were stimulated with BDNF. Western blots probed with phospho-specific antibodies against p-MTOR, p-Erk and p-S6 (FIG. 1A).

For CC(C)C(NC(=O)C1CCC(=O)NCCC(=O)NCCCCC(NC(=O)C(CCC(N)=O)NC(=O)C(NC(=O)C(Cc2c[nH]c3ccccc23)NC(=O)C2CCCN2C(=O)C2CCCN2C(=O)C(Cc2ccccc2)NC(=O)C(CO)NC(=O)CNC(=O)C(N)CSSCC(N)C(=O)NC(CCCNC(=N)N)C(=O)NC(CCCNC(=N)N)C(=O)NC(CCCNC(=N)N)C(=O)NC(CCCNC(=N)N)C(=O)NC(CCCNC(=N)N)C(=O)NC(CCCNC(=N)N)C(=O)NC(CCCNC(=N)N)C(N)=O)C(C)C)C(=O)NC(C(C)O)C(=O)N1)C(=O)O (centres unmarked) [Formula (IV)], the “patient outcome after ischemic episode” value (ischemic episode) was “recovers without significant brain damage”, the “immobility time in Tail Suspension Test” value [1] was “reduced the duration of immobility time” and the microglia phenotype (microglia) was “switches microglia from an active form (CORT depression) to the resting phenotype”. For the same compound, the IL-1β expression (IL-1β) was “blocks the increased expression of IL-1β”, the “immobility time in Forced Swim Test” value [2] was “reduced the duration of immobility time” and the “restoration of hippocampal LTP, dose compared to CN2097” value ([3]; Angelman mouse model, FIG. 2A-2C) was “restored hippocampal LTP in an Angelman mouse model at a significantly lower dose as compared to CN2097”. The “LTP (field EPSP slopes, CA1 region of hippocampus)” value ([3]; 0.5 mg/kg) was “resulted in LTP; also recorded: LTP was observed”, the “LTP (field EPSP slopes, CA1 region of hippocampus)” value ([3]; 1 mg/kg) was “LTP was observed” and the “LTP (field EPSP slopes, CA1 region of hippocampus)” value ([3]; 2 mg/kg) was “LTP was observed”. The p-S6 activity ([4]; BDNF stimulation) was “enhanced p-S6 activity” and the “dose enhancing p-S6 activity, fold lower compared to CN2097” value [4] was 5 fold.
